In patent publication US8202969B2, “Platelet derived growth factor receptor alpha (PDGFRA) polypeptides comprising activating mutation(s)” (Oregon Health & Science University, priority 2002, dated 2012):
Where a name gives a salt, the structure may show the parent alone.

Tests used:
wild-type KIT = wild-type KIT (Homo sapiens, UniProt P10721); settings: cited from earlier work
[1] = test system: KIT activation loop mutations that involve residues other than aspartic acid 816; settings: cited from earlier work
[2] = test system: KIT D816 mutations (D816V, D816Y, D816F, D816H); settings: or equivalent D814 residue in murine KIT; cited from earlier work
[3] = test system: KIT activating mutations involving the extracellular, juxtamembrane and TK1 domain; settings: cited from earlier work
CHO cells = test: Tyrosine phosphorylation of wild-type and mutant PDGFRA transiently expressed in CHO cells (immunoblot); type: cell-based, Chinese hamster; settings: for change of tyrosine phosphorylation by ligand stimulation: CHO cells, 100 ng/ml recombinant human PDGF-AA for 10 minutes; for baseline tyrosine phosphorylation: transient expression in CHO cells, serum starved overnight, vehicle
Method: FIG. 8: DGFRA mutations in GISTs result in constitutive activation of PDGFRA kinase. […] CHO cells were transiently transfected with expression vectors encoding cDNAs for wild-type or mutant PDGFRA. Transfected cells were serum starved overnight and treated with vehicle or ligand (recombinant human PDGF-AA) for 10 minutes. Whole cell lysates were immunostained sequentially for phospho-tyrosine and PDGFRA. […] In contrast, the mutant PDGFRA proteins display ligand-independent phosphorylation.
PDGFRA mutations were cloned by site-directed mutagenesis of the wild type PDGFRA cDNA. CHO cells were transiently transfected with expression vectors encoding for mutant or wild-type PDGFRA cDNA. Transfected cells were serum starved overnight and stimulated with vehicle or 100 ng/ml recombinant human PDGF-AA for 10 minutes before harvesting cells and preparing whole cell lysates for immunoblotting. The membranes were sequentially immunoblotted with antiserum against phosphorylated tyrosines (PY20 Transduction Laboratories) or total PDGFRA (Santa Cruz sc-338).

Chain of wild-type KIT (P10721 26-976): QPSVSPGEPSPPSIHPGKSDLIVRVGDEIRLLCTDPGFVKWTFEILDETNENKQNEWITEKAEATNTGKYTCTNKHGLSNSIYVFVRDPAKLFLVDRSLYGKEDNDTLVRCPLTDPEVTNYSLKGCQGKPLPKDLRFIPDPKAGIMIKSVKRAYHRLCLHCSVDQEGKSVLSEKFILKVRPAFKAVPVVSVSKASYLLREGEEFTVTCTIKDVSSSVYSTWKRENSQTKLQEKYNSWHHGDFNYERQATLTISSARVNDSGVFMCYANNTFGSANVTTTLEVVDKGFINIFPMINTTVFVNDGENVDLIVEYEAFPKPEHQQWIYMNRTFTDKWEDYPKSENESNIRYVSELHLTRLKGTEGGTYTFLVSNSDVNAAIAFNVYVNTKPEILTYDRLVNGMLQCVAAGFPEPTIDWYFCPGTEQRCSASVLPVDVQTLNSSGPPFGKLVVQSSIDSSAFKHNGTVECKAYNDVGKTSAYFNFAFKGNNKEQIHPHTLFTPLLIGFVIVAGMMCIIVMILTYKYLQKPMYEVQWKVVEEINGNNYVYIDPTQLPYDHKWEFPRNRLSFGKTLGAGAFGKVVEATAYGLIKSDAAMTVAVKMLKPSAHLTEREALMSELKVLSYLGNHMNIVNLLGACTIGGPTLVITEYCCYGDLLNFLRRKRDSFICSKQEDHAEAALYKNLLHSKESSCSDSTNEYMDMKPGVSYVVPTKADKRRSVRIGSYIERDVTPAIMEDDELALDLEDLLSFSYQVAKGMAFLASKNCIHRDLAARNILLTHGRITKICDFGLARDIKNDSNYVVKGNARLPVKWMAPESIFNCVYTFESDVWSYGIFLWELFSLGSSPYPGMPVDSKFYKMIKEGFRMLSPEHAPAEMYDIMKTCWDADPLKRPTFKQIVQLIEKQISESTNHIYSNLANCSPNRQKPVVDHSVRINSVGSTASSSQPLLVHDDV

Compound | activity against the kinase activity of wild-type KIT (wild-type KIT) | activity against other KIT activation loop mutations [1] | activity against KIT D816 mutations [2] | activity against KIT activating mutations involving the extracellular, juxtamembrane and TK1 domain [3] | change of tyrosine phosphorylation by ligand stimulation (CHO cells) | change of tyrosine phosphorylation by ligand stimulation (CHO cells; listed as Wild type PDGFRA) | baseline tyrosine phosphorylation (CHO cells) | baseline tyrosine phosphorylation (CHO cells; listed as Wild type PDGFRA)
Cc1ccc(NC(=O)c2ccc(CN3CCN(C)CC3)cc2)cc1Nc1nccc(-c2cccnc2)n1 [imatinib mesylate] | highly active | some activity | no clinically useful activity | highly active |  |  |  | 
non-mutant PDGFRA: human PDGFRA protein, SEQ ID NO: 2 |  |  |  |  | substantially increased | upregulated | weak | low-level phosphorylation
